Measurements as given in PMC12583827, “Harnessing microbial-derived metabolites in the urinary tract to prevent infection induced catheter encrustation” (Nature Communications, 2025).
“Also recorded” adds a separate entry of the source. Read-outs that look alike come from different tables or passages of the source. Where a SMILES comes first, the peptide text is derived from it.

Columns and labels:
P. mirabilis urease [1] = target: T1, P. mirabilis urease (Proteus mirabilis, UniProt P17086); type: cell-based; details: for effect on P. mirabilis urease activity (whole cell): potassium phosphate buffer, dose response; for Urease dampening activity: screen of candidate metabolites, * Trending but not statistically significant
T1 construct: it utilizes whole bacterial cells, rather than isolated enzyme preparations; endogenous in cells; host or cells: Proteus mirabilis HI4320, live whole cells
Description: (§1) Urease activity was measured as described previously in triplicate with at least three biological replicates[21]. Briefly, bacteria were cultured for ~18 h in LB broth, concentrated to an OD600 of 4, washed once in saline, and diluted (1:10 for P. mirabilis and 1:50 for P. stuartii and M. morganii) into candidate dampening metabolites in potassium phosphate buffer or human urine pH7 and supplemented with 500 mM urea and 0.01% phenol red. Bacterial suspensions were distributed into a 96-well plate, incubated at 37 °C with double-orbital shaking in a Synergy H1 plate reader (BioTek), and absorbance (OD562) was measured every 60 seconds for 180 minutes. Isogenic urease mutants (Supplementary Data 1) served as negative controls for P. mirabilis and P. stuartii and a vehicle control served as a negative control for M. morganii.

Jack Bean Urease (JBU) = target: T2, Jack Bean Urease (JBU) (Canavalia ensiformis, UniProt P07374); type: biochemical; details: 0.1 U JBU, 500 mM urea
T2 construct: purchased Sigma-Aldrich
Description: To measure Jack Bean urease activity, the previously described assay was modified such that 0.1 U (1U liberates 1 µmol of ammonia from urea per minute) of JBU (Sigma-Aldrich urease from Canavalia ensiformis) were distributed into a 96-well plate in place of the bacterial suspensions. Acetohydroxamic acid (AHA), was used as a positive control and a vehicle control was used as a negative control. Percent of maximum urease activity was calculated using Area Under the Curve (AUC) relative to untreated bacteria of interest or untreated JBU. Urease activity measurement in MRSA was adapted from a recently published semi quantitative assay (See Supplementary materials for details)[48].
414 Supplementary Figure 13. Microbial metabolites dampen activity of purified Jack Bean
415 Urease (JBU). 0.1 U of JBU (1U liberates 1 µmol of ammonia from urea per minute) was
416 incubated at 37 °C with shaking in urease-dampening metabolites, 500mM urea, and phenol red.
417 A urea analogue, AHA, served as the positive control for inhibition of JBU. Absorbance
418 (OD562) was measured every 60 seconds for 90 minutes, and activity is expressed as percent of
419 maximum activity (% Max Activity) relative to untreated JBU. Graphs show mean±SD for 3
420 independent experiments with 3 technical replicates each. Data were analyzed by two tailed one
421 sample t-test to a hypothetical value of 100% activity. ***P<0.001, **P<0.002, *P<0.033.
(1 picture or pasted object on this page, not shown here)

[2] = target: T3, urease of P. mirabilis cell free extracts (Proteus mirabilis, UniProt P17086); type: biochemical; details: for type of urease inhibition: Michaelis-Menten parameters, Lineweaver-Burke plot
T3 construct: 20ul of cell-free extract were distributed into a 96-well plate in place of the whole cell bacterial suspensions; endogenous in cells; host or cells: Proteus mirabilis HI4320, urea-induced; freeze-thaw and sonication lysate, clarified supernatant
Description: For the kinetic analysis of the urease reaction in the presence of urease dampening metabolites, urease activity assays were repeated with the P. mirabilis cell free extracts. Six different inhibitor concentrations that gave linear rates of reaction over a period of 120 min were tested for their effects on urease activity in the presence of urea concentrations ranging from 0 to 500 mM. Simple linear regression was performed on the absorbance (OD562) over 120 minutes for each condition and plotted as Initial velocity (slope) vs urea concentration. These initial hyperbolic plots were converted to double-reciprocal Lineweaver-Burke plots, and the pattern of inhibition inferred from the point of intersection of the lines. Finally, the Ki for a particular compound was determined by plotting the Km/Vmax ratio (the slope of the Lineweaver-Burke plots) of each line as a function of the inhibitor concentration as described by ref. [49]. The X-intercept corresponded to –Ki.

P. mirabilis urease [3] = target: T1, P. mirabilis urease; type: cell-based; details: for Compound 1 %I alone: kphos
Description: To assess the synergistic effects of dampening metabolites when used in combination with each other, P. mirabilis urease activity was measured as described above. Between 4-6 different concentrations for each dampening metabolite were tested both alone and in combination (See Fig. 6a for example). […] To account for variability between experiments, all conditions tested were performed on a single 96-well plate with three technical replicates for each condition. To compare between biologic replicates, percent inhibition relative to untreated P. mirabilis was calculated for each condition using the average area under the curve over 120-180 minutes (so that the positive control activity curve saturated without any increase in the negative control curve).
Statistical analysis was conducted using a one sample T test of the combination index compared to a hypothetical value of 1 (additive effect). […] Therefore, combination indexes were calculated using a desired effect size less than 40% were indicated with an * in Fig. 6b and in Supplementary Data 5.

[4] = target: T4, urease of P. mirabilis HI4320 cell free extracts (Proteus mirabilis, UniProt P17086); type: biochemical
T4 construct: 20ul of cell-free extract were distributed into a 96-well plate in place of the whole cell bacterial suspensions; endogenous in cells; host or cells: Proteus mirabilis HI4320, urea-induced; freeze-thaw and sonication lysate, clarified supernatant
Description: To measure urease activity of the cell free extracts of P. mirabilis, P. mirabilis was cultured for ~18 h in LB broth and then sub cultured until it reached mid-log growth phase (OD600 0.2-0.5). Cultures were spun down to pellet at 10,000 rcf for 10 minutes and resuspended in saline to a final OD600 of 1.0. Cultures were then diluted 1:10 in potassium phosphate buffer pH7 supplemented with 500 mM urea and incubated at 37 °C with shaking for 1 h to induce its urease enzyme production. The isogenic urease mutant Pm ureF::kan (Supplementary Data 1) served as negative control. Cultures then were spun down to pellet at 10,000 rcf for 10 minutes and resuspended in 2 mL saline. Cultures were subjected to four cycles of freezing in liquid nitrogen and thawing in a 37 °C water bath. Cultures were then probe sonicated (on ice) at 25% amplitude for 10 sec. Sonicated cultures were centrifuged at 18,900 Xg for 5 min and supernatants were transferred to a clean tube and stored on ice. To measure urease activity of cell free extracts, the previously described assay was modified such that 20ul of cell-free extract were distributed into a 96-well plate in place of the whole cell bacterial suspensions. Acetohydroxamic acid (AHA), was used as a positive control. Percent of maximum urease activity was calculated using Area Under the Curve (AUC) relative to untreated cell free extracts of P. mirabilis.

[5] = Buffering capacity assay (NaOH titration, phenol red); type: physicochemical; details: high concentrations of metabolite in potassium phosphate buffer with phenol red
Description: Known concentrations of sodium hydroxide were added to each well of a 96 well plate in combination with candidate dampening metabolite of interest buffered 1:10 in potassium phosphate buffer pH7. 0.01% phenol red was added to each well, and absorbance (OD562) was measured in a Synergy H1 plate reader (BioTek).

M. morganii urease = experiment: Urease activity assay, whole cell M. morganii TA43; type: cell-based, Morganella morganii
Description: as §1

P. stuartii urease = experiment: Urease activity assay, whole cell P. stuartii BE2467; type: cell-based, Providencia stuartii
Description: as §1

[6] = test system: P. mirabilis urease operon (ureABC, ureEDF); experiment: Real-time quantitative PCR of urease operon; type: cell-based, Proteus mirabilis; details: 15-minute incubation, 500 mM urea
Description: P. mirabilis was cultured for ~18 h in LB broth and then sub cultured until it reached mid-log growth phase (OD600 0.2-0.5). Cultures were spun down to pellet at 10,000 rcf for 10 minutes and resuspended in saline to a final OD600 of 1.0. Cultures were then diluted 1:10 into dampening metabolites buffered 1:10 in potassium phosphate buffer pH7 and supplemented with 500 mM urea. P. mirabilis in potassium phosphate buffer without urea served as a negative control. Cultures were incubated in potassium phosphate buffer with and without dampening metabolites at 37 °C with shaking for 15 minutes. RNA isolation, cDNA synthesis and RT qPCR were performed as described previously. […] A RNA integrity analysis using agarose gel electrophoresis on extracted RNA was performed for all samples to confirm no change in transcript stability (Supplementary Fig 16A). The data were analyzed according to the Relative Quantification (RQ) method by Pfaffl et al. 2001[54] (See Supplementary Information).
168 Real-time quantitative PCR analysis. The data were analyzed according to the Relative
169 Quantification (RQ) method by Pfaffl et al 2001 (56) in which P. mirabilis potassium phosphate
170 buffer without urea was considered as the ‘Control’ and P. mirabilis in potassium phosphate
171 buffer supplemented with 500mM urea with and without candidate dampening compounds were
172 the ‘Sample.’ The full equation is below.
(E )ΔCPtarget (control−sample)
174 Relative Quantification Ratio = target Equation 2
(Ereference)ΔCPreference (control−sample)
176 In this equation, E refers to the primer efficiency of the target gene (Etarget, urease operon
177 subunits) or the reference gene (Ereference, rpoA), and CP refers to the Cycle Point, or the cycle
178 number at which the signal exceeds the threshold. […]
183 for whole genome sequencing on the Illumina NextSeq2000 platform. Read trimming, and run
184 analytics were performed using Trimmomatic v0.39.0 (62). The processed reads were assembled
185 using spades v3.15.5 (63) wrapped in Unicycler v0.5.0 (64, 65). Read mapping was done using […]

UTI MRSA urease = UTI MRSA urease activity assay; type: cell-based, Staphylococcus aureus; details: whole cell, urease broth
Description: 190 Omega and visualization was carried out using ESPript 3.0 (69), enabling comparison across
191 different clinical isolates. Urease genes, including the full operon from ureA to ureR, were
192 identified and extracted from the prokka annotated genomes. The extracted protein sequences
193 were subjected to sequence alignment using Clustal Omega and visualization was carried out
194 using ESPript 3.0 [8], enabling comparison across different clinical isolates.
195 UTI MRSA urease activity assay. The UTI MRSA urease assay was adapted from a recently-
196 published semi quantitative assay to measure urease activity in bacterial species with low overall
197 activity under standard conditions (50). Dampening metabolites were directly dissolved in urease
198 broth (1 g tryptone (RPI; CAS No. 91079-40-2), 1 g D(+)-glucose (RPI; CAS No. 50-99-7), 2 g
199 potassium phosphate monobasic anhydrous (VWR; Lot: 20C1356567), 5 g sodium chloride
201 of MilliQ water, pH 5.5, sterilized via autoclaving). UTI MRSA strains from overnight cultures
202 were harvested by centrifugation for 5 minutes at 10,000 g, washed with 1 volume of 1X
203 Phosphate Buffered Saline (PBS), and resuspended in urease broth. Bacterial cultures were […]
205 measured at 415 nm, 560 nm, and 600 nm every 20 mins for 24 hours, shaking at 37°C using a
206 BioTek Synergy|H1 microtiter plate reader. Urease activity was calculated by dividing the OD […]

[7] = highest concentration tested 20mM

T2 sequence (P07374 whole entry, looked up): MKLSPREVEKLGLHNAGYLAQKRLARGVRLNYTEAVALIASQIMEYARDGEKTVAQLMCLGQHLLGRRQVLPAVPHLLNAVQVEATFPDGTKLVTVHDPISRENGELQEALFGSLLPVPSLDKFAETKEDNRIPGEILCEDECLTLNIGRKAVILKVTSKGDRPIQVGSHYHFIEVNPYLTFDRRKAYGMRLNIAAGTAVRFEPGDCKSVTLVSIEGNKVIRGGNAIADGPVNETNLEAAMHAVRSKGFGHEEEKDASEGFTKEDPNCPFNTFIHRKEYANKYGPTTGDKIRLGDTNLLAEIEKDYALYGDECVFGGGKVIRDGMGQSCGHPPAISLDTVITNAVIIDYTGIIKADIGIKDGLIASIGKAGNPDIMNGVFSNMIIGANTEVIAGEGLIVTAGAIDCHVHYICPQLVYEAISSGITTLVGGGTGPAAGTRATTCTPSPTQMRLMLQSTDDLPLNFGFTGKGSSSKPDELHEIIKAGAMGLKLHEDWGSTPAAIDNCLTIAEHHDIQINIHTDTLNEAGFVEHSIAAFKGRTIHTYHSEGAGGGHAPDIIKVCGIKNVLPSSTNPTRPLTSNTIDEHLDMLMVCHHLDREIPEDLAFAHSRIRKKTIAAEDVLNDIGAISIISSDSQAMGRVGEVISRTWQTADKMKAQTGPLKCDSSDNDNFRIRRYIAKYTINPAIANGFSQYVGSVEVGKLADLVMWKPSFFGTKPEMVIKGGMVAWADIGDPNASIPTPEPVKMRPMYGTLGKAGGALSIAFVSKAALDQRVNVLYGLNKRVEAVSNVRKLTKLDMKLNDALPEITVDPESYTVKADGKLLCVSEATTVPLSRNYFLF
T4 sequence (P17088 whole entry): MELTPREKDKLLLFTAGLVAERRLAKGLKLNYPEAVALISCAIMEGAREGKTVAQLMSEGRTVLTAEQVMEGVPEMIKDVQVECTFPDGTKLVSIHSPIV
T4 sequence (P17086 whole entry): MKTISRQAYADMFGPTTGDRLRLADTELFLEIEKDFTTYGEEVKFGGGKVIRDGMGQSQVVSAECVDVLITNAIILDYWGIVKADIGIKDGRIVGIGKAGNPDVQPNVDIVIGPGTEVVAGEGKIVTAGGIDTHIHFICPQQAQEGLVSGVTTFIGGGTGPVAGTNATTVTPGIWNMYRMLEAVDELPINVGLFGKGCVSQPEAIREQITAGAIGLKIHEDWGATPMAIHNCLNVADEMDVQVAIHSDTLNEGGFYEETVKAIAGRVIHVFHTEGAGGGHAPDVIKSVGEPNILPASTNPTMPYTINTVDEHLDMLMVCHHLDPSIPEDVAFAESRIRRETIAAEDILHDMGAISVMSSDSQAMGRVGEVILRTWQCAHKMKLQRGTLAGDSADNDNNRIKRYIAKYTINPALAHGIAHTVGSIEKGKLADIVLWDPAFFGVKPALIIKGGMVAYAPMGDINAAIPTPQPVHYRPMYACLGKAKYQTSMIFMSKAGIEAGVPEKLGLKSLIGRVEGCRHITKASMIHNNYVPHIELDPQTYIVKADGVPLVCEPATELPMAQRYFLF
T4 sequence (P17087 whole entry, further chain): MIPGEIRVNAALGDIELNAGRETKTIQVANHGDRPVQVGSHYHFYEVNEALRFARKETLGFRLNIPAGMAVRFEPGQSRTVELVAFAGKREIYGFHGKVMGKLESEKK
T3 sequence (P17086 whole entry): as the sequence (P17086 whole entry) above
T3 sequence (P17088 whole entry, further chain): as the sequence (P17088 whole entry) above
T3 sequence (P17087 whole entry, further chain): as the sequence (P17087 whole entry, further chain) above
T1 sequence (P17086 whole entry): as the sequence (P17086 whole entry) above
T1 sequence (P17088 whole entry, further chain): as the sequence (P17088 whole entry) above
T1 sequence (P17087 whole entry, further chain): as the sequence (P17087 whole entry, further chain) above

Row | SMILES | effect on P. mirabilis urease activity (whole cell) (P. mirabilis urease [1]) | Urease dampening activity (P. mirabilis urease [1]; [7]) | JBU activity (Jack Bean Urease (JBU)) | change of estimated Km on addition of metabolite [2] | change of estimated Vmax on addition of metabolite [2] | type of urease inhibition [2] | concentrations required to achieve a significant combination index (P. mirabilis urease [3]) | urease activity of cell free P. mirabilis extracts [4] | buffering capacity: absorbance (OD562) across NaOH concentrations [5] | Compound 1 %I alone (P. mirabilis urease [3]; Compound 1 [] alone 25, assay date 2024 08 07) | Compound 1 %I alone (P. mirabilis urease [3]; Compound 1 [] alone 37.5, assay date 2024 08 09) | Compound 1 %I alone (P. mirabilis urease [3]; Compound 1 [] alone 50, assay date 2024 08 07) | Dampens urease activity (P. mirabilis urease [1]; biosynthetic pathway/functional group screen, highest concentration tested 20mM) | urease activity in M. morganii (M. morganii urease) | urease activity in P. stuartii (P. stuartii urease) | ureE and ureF transcript levels [6] | urease activity in MRSA (UTI MRSA urease)
1 | CC(C)C[C@H](N)C(=O)NCC(=O)O [leucylglycine, L-Leucylglycine hydrate] (H-Leu-Gly-OH) | reproducibly decreased | Yes | inhibited | increase | decrease | mixed inhibitors | > 50 mM | at least partially inhibiting | – | – | – | – | – | – | – | – | –
2 | O=C(O)[C@@H](O)Cc1cnc[nH]1 [L-imidazole lactate, L-imidazolelactic acid] | – | Yes | inhibited | increase | decrease | mixed inhibitors | – | at least partially inhibiting | consistent reduction in absorbance compared to the control | 36.6% | 56.9% | 58.1% | – | – | – | – | –
3 | c1c[nH]cn1 [imidazole, Imidazole] | additional hits | – | inhibited | increase | decrease | mixed inhibitors | – | at least partially inhibiting | consistent reduction in absorbance compared to the control | – | – | – | Yes | – | – | – | –
4 | O=C(O)C(=O)Cc1ccccc1 [phenylpyruvate, Sodium phenylpyruvate monohydrate] | reproducibly decreased; also recorded: only modest activity | Yes | did not inhibit; also recorded: no activity | – | – | – | > 50 mM | – | – | – | – | – | – | no activity | no activity | modestly increased | most potent urease inhibition
